Reference: US20080095868A1, “Use of fermented wheat-germ in the feeding and veterinary practice” (priority 2002, published 2008)

Test system: M. gallisepticum No 1226
Assay: effect against Mycoplasma gallisepticum infection in chickens (Example 6)
Assay type: in vivo, Mycoplasma gallisepticum; Arbor Acress chickens
Method: The investigations were performed with Arbor Acress chickens of meat type free of M. synoviae infection. The freedom from Mycoplasma synoviae of the animals was verified with systematic serological screening examination in an agglutination test by the help of M. gallisepticum and M. synoviae antigens (Intervet International B.V.M.; Boxmeer, The Netherlands). Furthermore, the animals were tested in an ELISA-test based on monoclonal antibodies and with the use of MYGA test-kit (Diagnosztikum Kft; Budapest, Hungary) and MYSA kit (Svanova, Uppsala, Sweden) [Czifra, Gy. et al.: Avian Dis. 37, 680-688 (1993)]. The serological examinations gave negative results. Furthermore, from the same hatching from which the experimental animals derived, isolation of Mycoplasma was tried from the nasal cavity, trachea and air pocket of 20 1 day old chicks using medium B [Erno H., and Stipkovits, L.: Acta Vet. Scand. 14, 436-449 (1973)] and Frey's media [Frey, M. C. et al.: Am. J. Vet. Res. 29, 2164-2171 (1968)]. This cultivation closed with a negative result, too.
For the infection of the experimental animals M. gallisepticum N^o 1226 was employed which had been previously amplified in medium B for 24 hours. The germ content was 9.5×10^8 pfu/ml (pfu=plaque forming unit).
The experimental groups were treated and infected as follows:
Group 1. was located in a 200 litre box which can be fastened down hermetically, into which 10 ml sterile medium B was sprayed, then the animals were kept in this box for 20 minutes.
Group 3. was infected in identical manner as Group 2., then after location in a third room the animals were fed with a chick breeding nutriment containing VET-HBM in 3 g/kg concentration in the course of the experiment.
Group 4. was infected in identical manner as Group 2., then after location in a fourth room the animals were fed with a nutriment containing 200 mg/kg tiamutin (Biochemie GmbH, Kundl, Austria) in the course of the experiment.
To the judgment of the effectiveness of the treatment the following parameters were investigated: clinical symptoms, changes in body weight, feed conversion ratio; in addition to them pathological, histological and serological examinations as well as Mycoplasma re-isolation were performed. In the course of their evaluation the following result were obtained.
At the end of the experiment all the animals were examined by pathological dissection to air-pocket- and peritoneum inflammation characteristic of the M. gallisepticum infection.
The blood plasma of all the chickens was investigated on slide in a M. gallisepticum agglutination test. The severity of the reaction was scored, and the number of respondent animals and the sum of the scores were compared in a Chie square test. The Group 1. remained negative till the end of the experiment. […] (75 scores).
The re-isolation of the infectious Mycoplasma strain was performed as follows. Following of the infection after 1 hour 5-5 animals were killed. 1-1 cm long pieces of trachea were placed into 2 ml liquid medium B, and after 3 minutes of shaking germ counting were performed in the medium. At the end of the experiment re-isolation of the strain used for infection was attempted from the respiratory organs (trachea, lung, air-pocket) and other organs (brain, liver, spleen, kidney, heart) of all the chickens in that manner that samples were carried from every abovementioned organ to solid medium B by the help of a tampon. The agar slants were cultivated for 10 days then they were evaluated. A portion of the isolates was identified with an epifluorescent method using a specific immune serum.

## C=C[C@]1(C)C[C@@H](OC(=O)CSCCN(CC)CC)[C@]2(C)[C@H](C)CC[C@]3(CCC(=O)[C@H]32)[C@@H](C)[C@@H]1O [tiamutin]
30 animals per group, non-treated Group 2: 25, VET-HBM 3 g/kg, tiamutin 200 mg/kg
  number of animals exhibiting serological response, M. gallisepticum agglutination test: 8
End of the experiment, Group 2: 64 instances, VET-HBM 3 g/kg, tiamutin 200 mg/kg
  Mycoplasma re-isolation, number of occasions: 3
Infected chickens, Group 3 VET-HBM 3 g/kg, Group 4 tiamutin 200 mg/kg in nutriment
  clinical symptoms: no any clinical symptoms
Infected chickens, VET-HBM 3 g/kg, tiamutin 200 mg/kg in nutriment
  gain in body weight: of same degree as in the control group
Infected chickens, VET-HBM 3 g/kg, tiamutin 200 mg/kg, versus control group
  feed conversion ratio: remained at the same level
non-treated Group 2: 75 scores, VET-HBM 3 g/kg, tiamutin 200 mg/kg
  sum of the scores of the serological reaction: 11
Versus infected non-treated Group 2, VET-HBM 3 g/kg, tiamutin 200 mg/kg
  pathological alterations (air-pocket- and peritoneum inflammation): developed significantly more scarcely
Versus non-infected Group 1, VET-HBM 3 g/kg, tiamutin 200 mg/kg
  histological parameters (lymphohystiocytic bronchitis, lobular interstitial pneumoniae): remained on the same level as in the Group 1.
